Results from ChEMBL document CHEMBL4177696, “Identification of a diverse synthetic abietane diterpenoid library and insight into the structure-activity relationships for antibacterial activity” (Bioorg Med Chem Lett, 2017).
Values after ≈ are worked out from the molar mass of the structure shown.

How the values were obtained:
Format in all cases: functional
Staphylococcus aureus = assay: Antibacterial activity against Staphylococcus aureus measured after 24 hrs
Pseudomonas fluorescens = assay: Antibacterial activity against Pseudomonas fluorescens measured after 24 hrs
Escherichia coli = assay: Antibacterial activity against Escherichia coli measured after 24 hrs
Bacillus subtilis = assay: Antibacterial activity against Bacillus subtilis measured after 24 hrs

MIC (Staphylococcus aureus)	MIC (Pseudomonas fluorescens)	MIC (Escherichia coli)	MIC (Bacillus subtilis)	Compound
25 µg/mL (≈ 83.8 µM)	25 µg/mL (≈ 83.8 µM)	6.3 µg/mL (≈ 21.1 µM)	12.5 µg/mL (≈ 41.9 µM)	C=C1C(=O)CC[C@]2(C)c3ccc(C(C)C)c(OC)c3CC[C@@H]12
25 µg/mL (≈ 75.7 µM)	25 µg/mL (≈ 75.7 µM)	25 µg/mL (≈ 75.7 µM)	50 µg/mL (≈ 151 µM)	CC(C)(C)C(=O)OC[C@H]1[C@H](O)CC[C@]2(C)c3ccccc3CC[C@@H]12
50 µg/mL (≈ 94.6 µM)	50 µg/mL (≈ 94.6 µM)	75 µg/mL (≈ 142 µM)	50 µg/mL (≈ 94.6 µM)	COC(=O)[C@]1(C)CCC[C@]2(C)c3ccc(C(C)C)c(NC(=O)Cn4cc(Cc5ccccc5)nn4)c3CC[C@@H]12
6.3 µg/mL (≈ 11.6 µM)	25 µg/mL (≈ 45.9 µM)	12.5 µg/mL (≈ 22.9 µM)	50 µg/mL (≈ 91.8 µM)	COC(=O)[C@]1(C)CCC[C@]2(C)c3ccc(C(C)C)c(NC(=O)Cn4cc(-c5ccc(OC)cc5)nn4)c3CC[C@@H]12
50 µg/mL (≈ 104 µM)	75 µg/mL (≈ 157 µM)	6.3 µg/mL (≈ 13.2 µM)	75 µg/mL (≈ 157 µM)	COC(=O)[C@]1(C)CCC[C@]2(C)c3ccc(C(C)C)c(NC(=O)Cn4cc(C5CC5)nn4)c3CC[C@@H]12
75 µg/mL (≈ 138 µM)	25 µg/mL (≈ 45.9 µM)	75 µg/mL (≈ 138 µM)	50 µg/mL (≈ 91.8 µM)	COC(=O)[C@]1(C)CCC[C@]2(C)c3ccc(C(C)C)c(NC(=O)Cn4cc(-c5ccccc5OC)nn4)c3CC[C@@H]12
25 µg/mL (≈ 45.1 µM)	50 µg/mL (≈ 90.1 µM)	25 µg/mL (≈ 45.1 µM)	75 µg/mL (≈ 135 µM)	COC(=O)c1nnn(CC(=O)Nc2c(C(C)C)ccc3c2CC[C@H]2[C@](C)(C(=O)OC)CCC[C@]32C)c1C(=O)OC
12.5 µg/mL (≈ 23.5 µM)	12.5 µg/mL (≈ 23.5 µM)	25 µg/mL (≈ 46.9 µM)	6.3 µg/mL (≈ 11.8 µM)	COC(=O)[C@]1(C)CCC[C@]2(C)c3ccc(C(C)C)c(NC(=O)Cn4cc(-c5cccc(F)c5)nn4)c3CC[C@@H]12
50 µg/mL (≈ 91.8 µM)	50 µg/mL (≈ 91.8 µM)	75 µg/mL (≈ 138 µM)	75 µg/mL (≈ 138 µM)	COC(=O)[C@]1(C)CCC[C@]2(C)c3ccc(C(C)C)c(NC(=O)Cn4cc(-c5cccc(OC)c5)nn4)c3CC[C@@H]12
50 µg/mL (≈ 97.1 µM)	50 µg/mL (≈ 97.1 µM)	25 µg/mL (≈ 48.6 µM)	25 µg/mL (≈ 48.6 µM)	COC(=O)[C@]1(C)CCC[C@]2(C)c3ccc(C(C)C)c(NC(=O)Cn4cc(-c5ccccc5)nn4)c3CC[C@@H]12
50 µg/mL (≈ 93.9 µM)	50 µg/mL (≈ 93.9 µM)	50 µg/mL (≈ 93.9 µM)	25 µg/mL (≈ 46.9 µM)	COC(=O)[C@]1(C)CCC[C@]2(C)c3ccc(C(C)C)c(NC(=O)Cn4cc(-c5ccc(F)cc5)nn4)c3CC[C@@H]12
50 µg/mL (≈ 94.1 µM)	25 µg/mL (≈ 47 µM)	75 µg/mL (≈ 141 µM)	50 µg/mL (≈ 94.1 µM)	COC(=O)[C@]1(C)CCC[C@]2(C)c3ccc(C(C)C)c(NC(=O)Cn4cc(CBr)nn4)c3CC[C@@H]12
25 µg/mL (≈ 46.9 µM)	12.5 µg/mL (≈ 23.5 µM)	25 µg/mL (≈ 46.9 µM)	50 µg/mL (≈ 93.9 µM)	COC(=O)[C@]1(C)CCC[C@]2(C)c3ccc(C(C)C)c(NC(=O)Cn4cc(-c5ccccc5F)nn4)c3CC[C@@H]12
75 µg/mL (≈ 147 µM)	100 µg/mL (≈ 196 µM)	75 µg/mL (≈ 147 µM)	100 µg/mL (≈ 196 µM)	COC(=O)[C@]1(C)CCC[C@]2(C)c3ccc(C(C)C)c(NC(=O)Cn4cc([Si](C)(C)C)nn4)c3CC[C@@H]12
100 µg/mL (≈ 250 µM)	100 µg/mL (≈ 250 µM)	100 µg/mL (≈ 250 µM)	100 µg/mL (≈ 250 µM)	CCOCOC[C@]12CCC3=C(COC3=O)[C@@H]1CCc1c2ccc(C(C)C)c1OC
50 µg/mL (≈ 151 µM)	25 µg/mL (≈ 75.7 µM)	50 µg/mL (≈ 151 µM)	25 µg/mL (≈ 75.7 µM)	C=C1[C@@H]2CCc3c(ccc(C(C)C)c3OC)[C@@]2(C)CC[C@@]1(O)CO
100 µg/mL (≈ 290 µM)	100 µg/mL (≈ 290 µM)	50 µg/mL (≈ 145 µM)	100 µg/mL (≈ 290 µM)	COc1c(C(C)C)ccc2c1CC[C@H]1[C@@H]3COC(=O)[C@]3(O)CC[C@]21C
50 µg/mL (≈ 102 µM)	50 µg/mL (≈ 102 µM)	50 µg/mL (≈ 102 µM)	75 µg/mL (≈ 153 µM)	COC(=O)[C@]1(C)CCC[C@]2(C)c3ccc(C(C)C)c(NC(=O)Cn4cc(CCC#N)nn4)c3CC[C@@H]12
75 µg/mL (≈ 151 µM)	50 µg/mL (≈ 101 µM)	75 µg/mL (≈ 151 µM)	50 µg/mL (≈ 101 µM)	COC(=O)c1cn(CC(=O)Nc2c(C(C)C)ccc3c2CC[C@H]2[C@](C)(C(=O)OC)CCC[C@]32C)nn1
75 µg/mL (≈ 218 µM)	100 µg/mL (≈ 290 µM)	100 µg/mL (≈ 290 µM)	100 µg/mL (≈ 290 µM)	COc1c(C(C)C)ccc2c1CC[C@H]1[C@H]3COC(=O)[C@@]3(O)CC[C@]21C
50 µg/mL (≈ 91.8 µM)	75 µg/mL (≈ 138 µM)	25 µg/mL (≈ 45.9 µM)	12.5 µg/mL (≈ 22.9 µM)	COC(=O)[C@]1(C)CCC[C@]2(C)c3ccc(C(C)C)c(NC(=O)Cn4cc(COc5ccccc5)nn4)c3CC[C@@H]12
75 µg/mL (≈ 132 µM)	25 µg/mL (≈ 44 µM)	100 µg/mL (≈ 176 µM)	50 µg/mL (≈ 88.1 µM)	COC(=O)[C@]1(C)CCC[C@]2(C)c3ccc(C(C)C)c(NC(=O)Cn4cc(CNC(=O)OC(C)(C)C)nn4)c3CC[C@@H]12
25 µg/mL (≈ 45.9 µM)	75 µg/mL (≈ 138 µM)	50 µg/mL (≈ 91.8 µM)	75 µg/mL (≈ 138 µM)	COC(=O)[C@]1(C)CCC[C@]2(C)c3ccc(C(C)C)c(NC(=O)Cn4cc(C(O)c5ccccc5)nn4)c3CC[C@@H]12 (some centres undefined)
75 µg/mL (≈ 240 µM)	75 µg/mL (≈ 240 µM)	100 µg/mL (≈ 320 µM)	100 µg/mL (≈ 320 µM)	C=C1C(CO)=CC[C@]2(C)c3ccc(C(C)C)c(OC)c3CC[C@@H]12
25 µg/mL (≈ 61.5 µM)	6.3 µg/mL (≈ 15.5 µM)	3.1 µg/mL (≈ 7.62 µM)	12.5 µg/mL (≈ 30.7 µM)	COc1c(C(C)C)ccc2c1CC[C@H]1C(=O)C(=C(SC)SC)CC[C@]21CO
25 µg/mL (≈ 51.8 µM)	75 µg/mL (≈ 155 µM)	25 µg/mL (≈ 51.8 µM)	50 µg/mL (≈ 104 µM)	COC(=O)[C@]1(C)CCC[C@]2(C)c3ccc(C(C)C)c(NC(=O)Cn4cc(CCO)nn4)c3CC[C@@H]12
